According to ChEMBL document CHEMBL5038642, “Synthesis and Antiviral Activities of Neoechinulin B and Its Derivatives” (J Nat Prod, 2022):
The source made the active and inactive calls. The calls are words filed in the database; no cut-off is given here.

Experiments:
Huh7.5.1 = assay: Cytotoxicity against human Huh-7.5.1 cells assessed as reduction in cell viability measured at 72 hrs by MTT assay; type: functional
Huh-7.5.1 [1] = assay: Antagonist activity at LXR (unknown origin) expressed in human Huh-7.5.1 cells transfected with luciferase reporter plasmid containing of LXRE assessed as reduction in T0901317-induced reporter activity at 5 uM measured after 48 hrs by luciferase reporter assay; type: cell-based; conditions: filed as antagonist
Huh-7.5.1 [2] = assay: Antagonist activity at LXR (unknown origin) expressed in human Huh-7.5.1 cells transfected with luciferase reporter plasmid containing of LXRE assessed as reduction in T0901317-induced reporter activity at 30 uM measured after 48 hrs by luciferase reporter assay; type: cell-based
SARS-CoV-2 = assay: Antiviral activity against SARS-CoV-2 WK-251 infected in African green monkey Vero E6 cells expressing TMPRSS2 assessed as reduction in viral RNA replication incubated for 24 hrs by qRT-PCR analysis; type: functional, organism-based, Severe acute respiratory syndrome coronavirus 2; conditions: for IC50: Severe acute respiratory syndrome coronavirus 2, WK-251, Vero C1008, 24 h
Hepatitis C virus = assay: Antiviral activity against HCV JFH-1 infected in human Huh-7.5.1 cells assessed as reduction in viral replication measured after 72 hrs by chemiluminescent enzyme immunoassay; type: functional, organism-based, Hepacivirus hominis
[3] = Cytotoxicity against African green monkey Vero E6 cells expressing TMPRSS2 assessed as reduction in cell viability incubated for 24 hrs by DAPI staining based confocal microscopic analysis; type: toxicity, Vero C1008; conditions: chlorocebus sabaeus
Huh-7.5.1 [4] = assay: Antagonist activity at LXR (unknown origin) expressed in human Huh-7.5.1 cells transfected with luciferase reporter plasmid containing of LXRE assessed as reduction in T0901317-induced reporter activity at 10 uM measured after 48 hrs by luciferase reporter assay; type: cell-based; conditions: filed as antagonist

SMILES	CC50 (Huh7.5.1) [µM]	other results
C=c1[nH]c(=O)/c(=C/c2ccoc2)[nH]c1=O	> 20	
C=c1[nH]c(=O)/c(=C/c2ccc(C(C)(C)C)cc2)[nH]c1=O	> 20	Activity (Huh-7.5.1 [1]): Active
C=CC(C)(C)c1[nH]c2ccccc2c1C[C@@H]1NC(=O)[C@H](C)NC1=O [PREECHINULIN]	> 20	
C=c1[nH]c(=O)/c(=C/c2ccc(C(=O)OC)cc2)[nH]c1=O	> 20	
C=c1[nH]c(=O)/c(=C/c2ccc(-c3ccccc3)cc2)[nH]c1=O	> 20	
C=c1[nH]c(=O)/c(=C/c2ccccc2)[nH]c1=O	> 20	Activity (Huh-7.5.1 [2]): inactive
C=c1[nH]c(=O)/c(=C/c2ccc(OC)cc2)[nH]c1=O	> 20	
C=c1[nH]c(=O)/c(=C/c2ccc(C)cc2)[nH]c1=O	> 20	
C=CC(C)(C)c1[nH]c2ccccc2c1/C=C1\NC(=O)C(C)(OC)NC1=O (stereo not drawn) [VARIECOLORIN H]	> 20	
C=c1[nH]c(=O)/c(=C/c2ccc(N(C)C)cc2)[nH]c1=O	> 20	
C=c1[nH]c(=O)/c(=C/c2ccc3ccc4cccc5ccc2c3c45)[nH]c1=O	> 20	IC50 (SARS-CoV-2): > 40 µM; IC90 (SARS-CoV-2; Severe acute respiratory syndrome coronavirus 2, WK-251, Vero C1008, time 24 hrs): > 40 µM; IC50 (Hepatitis C virus; JFH-1, Huh-7.5.1, 72 h): 3.9 µM; IC90 (Hepatitis C virus; JFH-1, Huh-7.5.1, time 72 hrs): > 20 µM; CC50 at 24 h [3]: > 100 µM
C=c1[nH]c(=O)/c(=C/c2cc(C(C)(C)C)cc(C(C)(C)C)c2)[nH]c1=O	> 20	
C=c1[nH]c(=O)/c(=C/c2ccc(OC)c(OC)c2)[nH]c1=O	> 20	
C=c1[nH]c(=O)/c(=C/c2ccc3ccccc3c2)[nH]c1=O	> 20	
C=CC(C)(C)c1[nH]c2ccccc2c1/C=c1\[nH]c(=O)c(=C)[nH]c1=O [NEOECHINULIN B]	> 20	Activity (Huh-7.5.1 [4]): Active
C=c1[nH]c(=O)/c(=C/c2ccc(C(F)(F)F)cc2)[nH]c1=O	> 20	IC50 (SARS-CoV-2): 9.1 µM
C=c1[nH]c(=O)/c(=C/c2cc(OC)c(OC)c(OC)c2)[nH]c1=O	> 20	
C=c1[nH]c(=O)/c(=C/c2c[nH]c3ccccc23)[nH]c1=O	> 20	
C=c1[nH]c(=O)/c(=C/c2ccsc2)[nH]c1=O	> 20	
